Test results reported in PubChem BioAssay (NCI).
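Growth conditions: 96-well plates. Treatment: test compound, 48 hours, 5 concentrations. Analysis: linear interpolation between bracketing concentrations; unreached endpoints set to highest concentration. TGI denotes the concentration required for complete inhibition of growth.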

How the values were obtained:
Experiment in all cases: NCI anticancer screen, dose series, 48 h
786-0 renal = system: 786-0 renal
A498 renal = system: A498 renal
A549 NSCLC = system: A549 NSCLC
ACHN renal = system: ACHN renal
CAKI-1 renal = system: CAKI-1 renal
CCRF-CEM leukemia = system: CCRF-CEM leukemia
COLO 205 colon = system: COLO 205 colon
DLD-1 colon = system: DLD-1 colon
DMS 114 small cell lung = system: DMS 114 small cell lung
DMS 273 small cell lung = system: DMS 273 small cell lung
EKVX NSCLC = system: EKVX NSCLC
HCC-2998 colon = system: HCC-2998 colon
HCT-116 colon = system: HCT-116 colon
HL-60(TB) leukemia = system: HL-60(TB) leukemia
HOP-18 NSCLC = system: HOP-18 NSCLC
HOP-62 NSCLC = system: HOP-62 NSCLC
HOP-92 NSCLC = system: HOP-92 NSCLC
HT29 colon = system: HT29 colon
IGROV1 ovarian = system: IGROV1 ovarian
K-562 leukemia = system: K-562 leukemia
KM12 colon = system: KM12 colon
KM20L2 colon = system: KM20L2 colon
LOX IMVI melanoma = system: LOX IMVI melanoma
LXFL 529 NSCLC = system: LXFL 529 NSCLC
M14 melanoma = system: M14 melanoma
M19-MEL melanoma = system: M19-MEL melanoma
MALME-3M melanoma = system: MALME-3M melanoma
MOLT-4 leukemia = system: MOLT-4 leukemia
NCI-H226 lung = system: NCI-H226 lung
NCI-H23 lung = system: NCI-H23 lung
NCI-H522 lung = system: NCI-H522 lung
OVCAR-3 ovarian = system: OVCAR-3 ovarian
OVCAR-4 ovarian = system: OVCAR-4 ovarian
OVCAR-5 ovarian = system: OVCAR-5 ovarian
OVCAR-8 ovarian = system: OVCAR-8 ovarian
RXF 393 renal = system: RXF 393 renal
RXF-631 renal = system: RXF-631 renal
SF-268 CNS = system: SF-268 CNS
SF-295 CNS = system: SF-295 CNS
SF-539 CNS = system: SF-539 CNS
SK-MEL-2 melanoma = system: SK-MEL-2 melanoma
SK-MEL-28 melanoma = system: SK-MEL-28 melanoma
SK-MEL-5 melanoma = system: SK-MEL-5 melanoma
SK-OV-3 ovarian = system: SK-OV-3 ovarian
SN12C renal = system: SN12C renal
SNB-19 CNS = system: SNB-19 CNS
SNB-75 CNS = system: SNB-75 CNS
SNB-78 CNS = system: SNB-78 CNS
SR leukemia = system: SR leukemia
SW-620 colon = system: SW-620 colon
TK-10 renal = system: TK-10 renal
U251 CNS = system: U251 CNS
UACC-257 melanoma = system: UACC-257 melanoma
UACC-62 melanoma = system: UACC-62 melanoma
UO-31 renal = system: UO-31 renal
XF 498 CNS = system: XF 498 CNS
HCT-15 colon = system: HCT-15 colon
NCI-H460 lung = system: NCI-H460 lung
RPMI-8226 leukemia = system: RPMI-8226 leukemia

CCCCCCC1=NOC(C(c2cc[nH]c2)N(C)[C@H](C(=O)OC)C(C)C)C1 (stereo not given in full)
TGI (786-0 renal): > 100 µM | TGI (A498 renal): > 100 µM | TGI (A549 NSCLC): > 100 µM | TGI (ACHN renal): > 100 µM | TGI (CAKI-1 renal): > 100 µM | TGI (CCRF-CEM leukemia): 53.9 µM | TGI (COLO 205 colon): 32.2 µM | TGI (DLD-1 colon): > 100 µM | TGI (DMS 114 small cell lung): > 100 µM | TGI (DMS 273 small cell lung): > 100 µM | TGI (EKVX NSCLC): > 100 µM | TGI (HCC-2998 colon): > 100 µM | TGI (HCT-116 colon): > 100 µM | TGI (HL-60(TB) leukemia): 63.7 µM | TGI (HOP-18 NSCLC): > 100 µM | TGI (HOP-62 NSCLC): > 100 µM | TGI (HOP-92 NSCLC): > 100 µM | TGI (HT29 colon): > 100 µM | TGI (IGROV1 ovarian): > 100 µM | TGI (K-562 leukemia): > 100 µM | TGI (KM12 colon): 63.6 µM | TGI (KM20L2 colon): > 100 µM | TGI (LOX IMVI melanoma): 74.6 µM | TGI (LXFL 529 NSCLC): > 100 µM | TGI (M14 melanoma): > 100 µM | TGI (M19-MEL melanoma): > 100 µM | TGI (MALME-3M melanoma): > 100 µM | TGI (MOLT-4 leukemia): 62.7 µM | TGI (NCI-H226 lung): > 100 µM | TGI (NCI-H23 lung): > 100 µM | TGI (NCI-H522 lung): 33.9 µM | TGI (OVCAR-3 ovarian): 77.6 µM | TGI (OVCAR-4 ovarian): > 100 µM | TGI (OVCAR-5 ovarian): > 100 µM | TGI (OVCAR-8 ovarian): > 100 µM | TGI (RXF 393 renal): > 100 µM | TGI (RXF-631 renal): > 100 µM | TGI (SF-268 CNS): > 100 µM | TGI (SF-295 CNS): > 100 µM | TGI (SF-539 CNS): > 100 µM | TGI (SK-MEL-2 melanoma): 65.9 µM | TGI (SK-MEL-28 melanoma): > 100 µM | TGI (SK-MEL-5 melanoma): > 100 µM | TGI (SK-OV-3 ovarian): > 100 µM | TGI (SN12C renal): 51.6 µM | TGI (SNB-19 CNS): > 100 µM | TGI (SNB-75 CNS): > 100 µM | TGI (SNB-78 CNS): 87.1 µM | TGI (SR leukemia): 91.6 µM | TGI (SW-620 colon): 68 µM | TGI (TK-10 renal): > 100 µM | TGI (U251 CNS): > 100 µM | TGI (UACC-257 melanoma): > 100 µM | TGI (UACC-62 melanoma): > 100 µM | TGI (UO-31 renal): > 100 µM | TGI (XF 498 CNS): > 100 µM

O=C(O)C(CO)N=Cc1nc(-c2ccccc2)oc1O (stereo not given)
TGI (786-0 renal): > 100 µM | TGI (A498 renal): > 100 µM | TGI (A549 NSCLC): > 100 µM | TGI (ACHN renal): > 100 µM | TGI (CAKI-1 renal): > 100 µM | TGI (CCRF-CEM leukemia): > 100 µM | TGI (COLO 205 colon): > 100 µM | TGI (DLD-1 colon): > 100 µM | TGI (DMS 114 small cell lung): > 100 µM | TGI (DMS 273 small cell lung): > 100 µM | TGI (EKVX NSCLC): > 100 µM | TGI (HCC-2998 colon): > 100 µM | TGI (HCT-116 colon): > 100 µM | TGI (HCT-15 colon): > 100 µM | TGI (HL-60(TB) leukemia): > 100 µM | TGI (HOP-18 NSCLC): > 100 µM | TGI (HOP-62 NSCLC): > 100 µM | TGI (HOP-92 NSCLC): > 100 µM | TGI (HT29 colon): > 100 µM | TGI (IGROV1 ovarian): > 100 µM | TGI (K-562 leukemia): > 100 µM | TGI (KM12 colon): > 100 µM | TGI (KM20L2 colon): > 100 µM | TGI (LOX IMVI melanoma): > 100 µM | TGI (LXFL 529 NSCLC): > 100 µM | TGI (M14 melanoma): > 100 µM | TGI (M19-MEL melanoma): > 100 µM | TGI (MALME-3M melanoma): > 100 µM | TGI (NCI-H226 lung): > 100 µM | TGI (NCI-H23 lung): > 100 µM | TGI (NCI-H460 lung): > 100 µM | TGI (NCI-H522 lung): > 100 µM | TGI (OVCAR-3 ovarian): > 100 µM | TGI (OVCAR-4 ovarian): > 100 µM | TGI (OVCAR-5 ovarian): > 100 µM | TGI (OVCAR-8 ovarian): > 100 µM | TGI (RPMI-8226 leukemia): > 100 µM | TGI (RXF 393 renal): > 100 µM | TGI (RXF-631 renal): > 100 µM | TGI (SF-268 CNS): > 100 µM | TGI (SF-295 CNS): > 100 µM | TGI (SF-539 CNS): > 100 µM | TGI (SK-MEL-2 melanoma): > 100 µM | TGI (SK-MEL-28 melanoma): > 100 µM | TGI (SK-MEL-5 melanoma): > 100 µM | TGI (SK-OV-3 ovarian): > 100 µM | TGI (SNB-19 CNS): > 100 µM | TGI (SNB-75 CNS): > 100 µM | TGI (SNB-78 CNS): > 100 µM | TGI (SW-620 colon): > 100 µM | TGI (TK-10 renal): > 100 µM | TGI (U251 CNS): > 100 µM | TGI (UACC-257 melanoma): > 100 µM | TGI (UACC-62 melanoma): > 100 µM | TGI (UO-31 renal): > 100 µM | TGI (XF 498 CNS): > 100 µM

CC1(C)OCC[C@@H]1[Si](C)(C)C
TGI (786-0 renal): > 100 µM | TGI (A498 renal): > 100 µM | TGI (A549 NSCLC): > 100 µM | TGI (ACHN renal): > 100 µM | TGI (CCRF-CEM leukemia): > 100 µM | TGI (COLO 205 colon): > 100 µM | TGI (DMS 114 small cell lung): > 100 µM | TGI (DMS 273 small cell lung): > 100 µM | TGI (EKVX NSCLC): > 100 µM | TGI (HCT-116 colon): > 100 µM | TGI (HCT-15 colon): > 100 µM | TGI (HOP-18 NSCLC): > 100 µM | TGI (HOP-92 NSCLC): > 100 µM | TGI (HT29 colon): > 100 µM | TGI (IGROV1 ovarian): > 100 µM | TGI (K-562 leukemia): > 100 µM | TGI (KM12 colon): > 100 µM | TGI (KM20L2 colon): > 100 µM | TGI (LOX IMVI melanoma): > 100 µM | TGI (LXFL 529 NSCLC): > 100 µM | TGI (M14 melanoma): > 100 µM | TGI (M19-MEL melanoma): > 100 µM | TGI (MALME-3M melanoma): > 100 µM | TGI (MOLT-4 leukemia): > 100 µM | TGI (NCI-H226 lung): > 100 µM | TGI (NCI-H23 lung): > 100 µM | TGI (NCI-H460 lung): > 100 µM | TGI (NCI-H522 lung): 61 µM | TGI (OVCAR-3 ovarian): > 100 µM | TGI (OVCAR-4 ovarian): > 100 µM | TGI (OVCAR-5 ovarian): > 100 µM | TGI (OVCAR-8 ovarian): > 100 µM | TGI (RPMI-8226 leukemia): > 100 µM | TGI (RXF 393 renal): 89.8 µM | TGI (RXF-631 renal): > 100 µM | TGI (SF-268 CNS): > 100 µM | TGI (SF-295 CNS): > 100 µM | TGI (SF-539 CNS): > 100 µM | TGI (SK-MEL-2 melanoma): > 100 µM | TGI (SK-MEL-28 melanoma): > 100 µM | TGI (SK-MEL-5 melanoma): > 100 µM | TGI (SK-OV-3 ovarian): > 100 µM | TGI (SN12C renal): > 100 µM | TGI (SNB-19 CNS): > 100 µM | TGI (SNB-75 CNS): > 100 µM | TGI (SNB-78 CNS): > 100 µM | TGI (SW-620 colon): > 100 µM | TGI (TK-10 renal): > 100 µM | TGI (U251 CNS): > 100 µM | TGI (UACC-257 melanoma): > 100 µM | TGI (UACC-62 melanoma): > 100 µM | TGI (UO-31 renal): > 100 µM | TGI (XF 498 CNS): > 100 µM
